Data as given in patent publication US5663201A, “Desferrioxamine-B salts” (CIBA-GEIGY Corporation, priority 1992, dated 1997).
Structures can show the parent of a compound that is named as a salt. Where two headings read alike, the source gives them in different places. One block for each compound: values may come before it.

Legend:
[1] = in words, U.S. Pat. No. 3,247,197; cited from earlier work
[2] = type: physicochemical; conditions: n-octanol/water, 5000 µM
Description: (§1) The partition coefficients of the salts prepared in Examples 1 to 5 between n-octanol and water are determined by the `shake-flask` method of Leo et at, Chem. Rev., 71(6), 525 (1971).
The n-octanol and aqueous phases are mutually saturated prior to conducting the experiment. The desferrioxamine-B sulphonic acid addition salt is dissolved in the aqueous phase at a concentration of 0.005 mol/l and the partition experiment is performed by shaking the vessel containing the two phases until an equilibrium has been achieved. […] After equilibrium has been achieved, the sample is centrifuged to enable phase separation. Both organic and aqueous phases are analysed for desferrioxamine-B content via extraction of an appropriate aliquot, quenching with an aqueous (for assay of the aqueous phase) or methanolic (for assay of the n-octanol phase) solution of FeCl3, and measurement of the absorption of the characteristic ferrioxamine-B chelate at ca. 450 nm. Respective calibration plots (absorbance vs. concentration of desferrioxamine-B sulphonic acid salt) for the assay of both aqueous and organic phases show a linear response over the concentration range studied. The results obtained are as follows: […]

[3] = type: physicochemical; conditions: n-octanol/phosphate buffer, pH 7.4
Description: as §1
The n-octanol and aqueous phases are mutually saturated prior to conducting the experiment. The desferrioxamine-B sulphonic acid addition salt is dissolved in the aqueous phase at a concentration of 0.005 mol/l and the partition experiment is performed by shaking the vessel containing the two phases until an equilibrium has been achieved. […] After equilibrium has been achieved, the sample is centrifuged to enable phase separation. Both organic and aqueous phases are analysed for desferrioxamine-B content via extraction of an appropriate aliquot, quenching with an aqueous (for assay of the aqueous phase) or methanolic (for assay of the n-octanol phase) solution of FeCl3, and measurement of the absorption of the characteristic ferrioxamine-B chelate at ca. 450 nm. Respective calibration plots (absorbance vs. concentration of desferrioxamine-B sulphonic acid salt) for the assay of both aqueous and organic phases show a linear response over the concentration range studied. The results obtained are as follows:
The partition coefficients of the salts prepared in Examples 1 to 5 between n-octanol and an aqueous phosphate buffer at pH7.4 having an ionic strength of 0.31 mol/l are determined using the procedure of Examples 6-10. The results obtained are as follows:
The use of n-octanol/aqueous media partition coefficients as a model for the lipophilicity of drugs is well established (see the abovementioned Leo et al reference). The aqueous phase in Examples 11 to 15 simulates physiological conditions.

[4] = intrinsic dissolution of tablets, Langenbucher flow-through apparatus; type: physicochemical; conditions: water, 25° C., listed as decanesulphonate
Description: Tablets are prepared from the salts of Examples 1 and 4 by compressing a mixture of 99 parts of the salt and 1 part of magnesium stearate in a 13mm die for 2 minutes under a pressure of 4×10^5 kPa. The intrinsic dissolution rates of the tablets are determined using a Langenbucher flow-through apparatus, with water at 25° C. as the dissolution medium. The amount of desferrioxamine-B dissolved in the medium is measured at intervals using a spectrophotometric assay at 215 nm.

[5] = test system: Daudi cell line (B-cell lymphoma); assay: iron-chelation bioassay: growth inhibiting effect on cells through iron removal, [3H] Thymidine uptake; type: cell-based; conditions: 72 hours, Control (0 μM): Ex 18 22297, Ex 19 23897, listed as decanesulphonate
Description: The iron-chelating properties of salts of the invention in a biological system are determined by means of a bioassay in which the growth inhibiting effect of the salts on cells through iron removal is measured by the uptake of radioactively labelled thymidine into the cells. The bioassay is carried out using a Daudi cell line (B-cell lymphoma), a Roswell Park Memorial Institute (RPMI) 1640 medium containing 1 µM ferric citrate and supplements as low iron washing medium and RPM11640 together with 5% by weight of foetal calf serum as passaging medium.
The cells are fed 24 hours before use. They are washed twice in the low iron washing medium to remove any excess iron and diluted with this medium to a concentration of 0.2×10^6 cells/0.180 ml. To 0.180 ml aliquots are added 0.02 ml of solutions of the desferrioxamine-B salts under test in phosphate-buffered saline (PBS) to give concentrations ranging from a Control containing no salt to a […] solution. The cells are then incubated at 37° C. in an atmosphere containing 5% by volume of carbon dioxide for 72 hours, being pulsed for the last 8 hours of that time with labelled [^3 H] Thymidine at 5 micro Ci/ml. The resulting cells are harvested and their radioactive disintegrations are counted for 10 minutes. The results are shown in the table below as the average of 4 separate experiments (except the Control result in Example 18 which is the average of 3 separate experiments).

SMILES: CC(=O)N(O)CCCCCNC(=O)CCC(=O)N(O)CCCCCNC(=O)CCC(=O)N(O)CCCCCN [desferrioxamine-B]
ability to form stable complexes with trivalent metal ions [1]: marked ability to form stable complexes with trivalent metal ions, especially Fe^3+

Partition Coefficient [2]: 0.366
Partition Coefficient [3]: 0.060
% Desferrioxaine-B salt dissolved ([4]; 1 min): 1.01%
% Desferrioxaine-B salt dissolved ([4]; 2 min): 1.65%
% Desferrioxaine-B salt dissolved ([4]; 5 min): 2.90%
% Desferrioxaine-B salt dissolved ([4]; 10 min): 4.67%
% Desferrioxaine-B salt dissolved ([4]; 15 min): 6.17%
% Desferrioxaine-B salt dissolved ([4]; 20 min): 7.50%
% Desferrioxaine-B salt dissolved ([4]; 30 min): 9.97%
% Desferrioxaine-B salt dissolved ([4]; 50 min): 14.21%
% Desferrioxaine-B salt dissolved ([4]; 75 min): 18.80%
% Desferrioxaine-B salt dissolved ([4]; 100 min): 22.92%
% Desferrioxaine-B salt dissolved ([4]; 125 min): 26.62%
% Desferrioxaine-B salt dissolved ([4]; 150 min): 30.13%
% Desferrioxaine-B salt dissolved ([4]; 175 min): 33.49%
% Desferrioxaine-B salt dissolved ([4]; 200 min): 36.85%
% Desferrioxaine-B salt dissolved ([4]; 225 min): 39.97%
% Desferrioxaine-B salt dissolved ([4]; 250 min): 42.94%
% Desferrioxaine-B salt dissolved ([4]; 275 min): 45.87%
% Desferrioxaine-B salt dissolved ([4]; 300 min): 48.81%
SMILES: CC(=O)N(O)CCCCCNC(=O)CCC(=O)N(O)CCCCCNC(=O)CCC(=O)N(O)CCCCCN [Example 1, decane-1-sulphonate/salt of desferrioxamine-B]
Disintegrations Per Minute ([3H] Thymidine uptake) ([5]; 0.5 μM salt): 23603 Disintegrations Per Minute
Disintegrations Per Minute ([3H] Thymidine uptake) ([5]; 1 μM salt): 14161 Disintegrations Per Minute
Disintegrations Per Minute ([3H] Thymidine uptake) ([5]; 2 μM salt): 6847 Disintegrations Per Minute
Disintegrations Per Minute ([3H] Thymidine uptake) ([5]; 3 μM salt): 6599 Disintegrations Per Minute
Disintegrations Per Minute ([3H] Thymidine uptake) ([5]; 4 μM salt): 5445 Disintegrations Per Minute
Disintegrations Per Minute ([3H] Thymidine uptake) ([5]; 5 μM salt): 5139 Disintegrations Per Minute
Disintegrations Per Minute ([3H] Thymidine uptake) ([5]; 6 μM salt): 4382 Disintegrations Per Minute
Disintegrations Per Minute ([3H] Thymidine uptake) ([5]; 7.5 μM salt): 3262 Disintegrations Per Minute
Disintegrations Per Minute ([3H] Thymidine uptake) ([5]; 10 μM salt): 2172 Disintegrations Per Minute
Disintegrations Per Minute ([3H] Thymidine uptake) ([5]; 15 μM salt): 1101 Disintegrations Per Minute
Disintegrations Per Minute ([3H] Thymidine uptake) ([5]; 20 μM salt): 494 Disintegrations Per Minute
